Laboratory results taken from US7893045B2, “Methods for treating lymphomas in certain patient populations and screening patients for said therapy” (Celgene Corporation, priority 2007, dated 2011).

Columns and labels:
[1] = system: relapsed and refractory aggressive non-Hodgkin's lymphoma (NHL); assay: Clinical Study 1: Phase II oral lenalidomide monotherapy in relapsed and refractory aggressive NHL; type: in vivo, human; conditions: for Median progression-free survival: FIG. 1
Experimental: A multi-center, open-label, Phase II study was conducted in patients with relapsed and refractory aggressive non-Hodgkin's lymphoma (NHL). The trial was designed for oral monotherapy with 3-(4-amino-1-oxo-1,3-dihydro-isoindol-2-yl)-piperidin-2,6-dione (Revlimid® or lenalidomide) in 49 patients with relapsed and refractory aggressive NHL following one or more prior treatment regimen with measurable disease. Patients in the study received lenalidomide in an amount of 25 mg orally once daily for days one to 21 in a 28-day cycle and continued therapy for 52 weeks as tolerated or until disease progression. A patient who achieved a complete response during the 52 week period was to receive two additional cycles of treatment prior to discontinuing treatment and entering the follow-up phase.
The patients who had received a median of 4 prior treatments (range: 1-7 prior treatments), were administered with lenalidomide in an amount of 25 mg orally once daily for 21 days in the treatment cycle of 28 days. Of the 49 patients, 26 had diffuse large cell lymphoma, 15 had mantle cell lymphoma, five patients had follicular lymphoma, and three had transformed lymphoma. Median time from diagnosis was 2.7 years (range 0.4-32) and patients had received a median of 4 (range […]) prior drug regimens for NHL. Ninety-three percent of the patients had received prior rituximab and 63% of the patients were rituximab refractory.

[2] = system: aggressive NHL; assay: Clinical Study 2: lenalidomide monotherapy in aggressive NHL; type: in vivo, human
Experimental: In a separate clinical study, 86 patients received at least 25 mg of lenalidomide once daily on Days 1-21 every 28 days and continued therapy as tolerated or until disease progression. Forty-eight of these patients were evaluable for response assessment (Table 3). The median age was 65 years. The most common histology was DLBCL (63%). The median time from diagnosis to lenalidomide treatment was 2 years. Patients received a median of 4 prior treatment regimens for NHL. Median time from last rituximab treatment was 297 days. […] Ninety-six percent of the patients had received prior rituximab.

[3] = system: aggressive NHL; assay: Study 1 and 2 taken together: response by predictive factors; type: in vivo, human
[4] = system: peripheral T-cell lymphomas (PTCL); assay: Clinical Study 3: Phase II lenalidomide for peripheral T-cell lymphomas; type: in vivo; conditions: about 25 mg orally daily for 21 days followed by 7 days of rest; ten patients
Experimental: A multi-center, open label, phase II study was conducted to evaluate the efficacy of 3-(4-amino-1-oxo-1,3-dihydro-isoindol-2-yl)-piperidin-2,6-dione (lenalidomide) for peripheral T-cell lymphomas (PTCL). Patients with relapsed or refractory disease were eligible, as well as patients who had not previously had systemic therapy but who were ineligible for standard curative chemotherapy regimens due to comorbid illness. Each cycle (28 days) of treatment comprises administration of about 25 mg of 3-(4-amino-1-oxo-1,3-dihydro-isoindol-2-yl)-piperidin-2,6-dione (lenalidomide) given orally daily for 21 days followed by 7 days of rest, until disease progression, death or unacceptable toxicity.
Ten (9 males and 1 female) patients were enrolled. Median age of participants was 56 years (range, 42-76 years). Histologies of the patients included PTCL unspecified (n=4), angioimmunoblastic T-cell lymphoma (n=4), anaplastic large cell lymphoma (n=1), and gamma/delta T-cell lymphoma (n=1). Median number of prior lines of systemic therapy was one (range, 0-3). Median number of cycles was two (range, 1-8).

[5] = Aggressive, n=49, 25 mg orally once daily days 1-21 of 28-day cycle
[6] = DLBCL, n=26, 25 mg daily days 1-21 of 28
[7] = FCL, n=5, 25 mg daily days 1-21 of 28
[8] = MCL, n=15, 25 mg daily days 1-21 of 28
[9] = TSF, n=3, 25 mg daily days 1-21 of 28
[10] = of fourteen patients with SD at cycle 2
[11] = the four rituximab naïve patients
[12] = Aggressive NHL, 48 evaluable patients, at least 25 mg once daily Days 1-21 every 28 days
[13] = Diffuse large B-cell, 30 patients
[14] = Follicular center lymphoma grade 3, 1 patient
[15] = Mantle cell lymphoma, 14 patients
[16] = Transformed lymphoma, 3 patients
[17] = Study 1 and 2, time from rituximab <230 days, 40 patients
[18] = Study 1 and 2, time from rituximab ≧230 days, 57 patients
[19] = Study 1 and 2, tumor burden <50 cm^2, 66 patients
[20] = Study 1 and 2, tumor burden ≧50 cm^2, 29 patients

Nc1cccc2c1CN(C1CCC(=O)NC1=O)C2=O (centres unmarked) [lenalidomide, 3-(4-amino-1-oxo-1,3-dihydro-isoindol-2-yl)-piperidine-2,6-dione]
response to lenalidomide ([1]; <230 days since last rituximab therapy): 6% | response to lenalidomide ([1]; >=230 days since last rituximab therapy): 52% | CR, complete response (patients) [1, 5]: 2 | CRu, complete response unconfirmed (patients) [1, 5]: 4 | PD, progressive disease (patients) [1, 5]: 21 | PR, partial response (patients) [1, 5]: 11 | RR, response rate [1, 5]: 35% | CR, complete response (patients) ([1]; DLBCL, diffuse large B-cell lymphoma, n=26, 25 mg daily days 1-21 of 28): 1 | CRu, complete response unconfirmed (patients) [1, 6]: 2 | PD, progressive disease (patients) [1, 6]: 14 | PR, partial response (patients) [1, 6]: 2 | RR, response rate [1, 6]: 19% | CR, complete response (patients) ([1]; FCL, follicular-center lymphoma, n=5, 25 mg daily days 1-21 of 28): 0 | CRu, complete response unconfirmed (patients) [1, 7]: 1 | PD, progressive disease (patients) [1, 7]: 2 | PR, partial response (patients) [1, 7]: 2 | RR, response rate [1, 7]: 60% | CR, complete response (patients) ([1]; MCL, mantle cell lymphoma, n=15, 25 mg daily days 1-21 of 28): 1 | CRu, complete response unconfirmed (patients) [1, 8]: 1 | PD, progressive disease (patients) [1, 8]: 5 | PR, partial response (patients) [1, 8]: 6 | RR, response rate [1, 8]: 53% | CRu, complete response unconfirmed (patients) [1, 9]: 0 | PD, progressive disease (patients) [1, 9]: 0 | PR, partial response (patients) [1, 9]: 1 | RR, response rate [1, 9]: 33% | CR, complete response (patients) ([1]; TSF, transformed lymphoma, n=3, 25 mg daily days 1-21 of 28): 0 | response to lenalidomide ([1]; absolute lymphocyte count <=0.6×10^9/L): 9% | response to lenalidomide ([1]; absolute lymphocyte count >0.6×10^9/L): 42% | patients with initial PR at 2 cycles who went on to CR/CRu with continued treatment ([1]; continued treatment): four | Response Rate ([1]; favorable values of disease burden, absolute lymphocyte count and time since last rituximab (n=23)): 65% | patients with stable disease at the first (cycle 2) assessment ([1]; first assessment, cycle 2): Fourteen | response to lenalidomide ([1]; largest tumor lesion <=4.5 cm): 55% | response to lenalidomide ([1]; largest tumor lesion >4.5 cm): 5% | patients with SD or PR at first assessment who improved their response with continued treatment ([1]; of 28 patients): seven | share of patients with SD or PR at first assessment who improved their response ([1]; of 28 patients): 25% | patients with an objective response ([1]; of 49 patients): Seventeen | patients with SD at first assessment who went on to exhibit a response with continued treatment [1, 10]: three | share of patients with SD at first assessment who went on to exhibit a response [1, 10]: 21% | response to lenalidomide ([1]; patients not refractory to rituximab): 31% | response to lenalidomide ([1]; patients refractory to rituximab): 30% | Median progression-free survival ([1]; patients with favorable prognostic values): 7.5 months | Median progression-free survival ([1]; patients with poor prognostic factors): 1.9 months | patients with CR [1, 11]: two | patients with PR [1, 11]: 1 | patients with SD [1, 11]: 1 | response to lenalidomide ([1]; tumor burden <50 cm^2): 52% | response to lenalidomide ([1]; tumor burden >=50 cm^2): 0% | Response Rate ([1]; unfavorable values for these prognostic values (n=26)): 8% | Median progression-free survival ([1]; whole group (all patients), Kaplan-Meier): 3.7 months | response to lenalidomide ([2]; <230 days from rituximab to lenalidomide treatment): 5% | ORR, overall response rate [2, 12]: 27% | PD, progressive disease (patients) [2, 12]: 25 | PR, partial response (patients) [2, 12]: 12 | CR, complete response (patients) [2, 13]: 1 | ORR, overall response rate [2, 13]: 20% | PD, progressive disease (patients) [2, 13]: 19 | PR, partial response (patients) [2, 13]: 5 | CR, complete response (patients) [2, 14]: 0 | ORR, overall response rate [2, 14]: 100% | PD, progressive disease (patients) [2, 14]: 0 | PR, partial response (patients) [2, 14]: 1 | CR, complete response (patients) [2, 15]: 0 | ORR, overall response rate [2, 15]: 36% | PD, progressive disease (patients) [2, 15]: 9 | PR, partial response (patients) [2, 15]: 5 | CR, complete response (patients) [2, 16]: 0 | ORR, overall response rate [2, 16]: 33% | PD, progressive disease (patients) [2, 16]: 1 | PR, partial response (patients) [2, 16]: 1 | ORR ([2]; favorable values for both tumor burden and time from rituximab (N=19)): 53% | response to lenalidomide ([2]; tumor burden <50 cm^2): 33% | response to lenalidomide ([2]; tumor burden ≧50 cm^2): 14% | ORR ([2]; unfavorable values (N=29)): 10% | response to lenalidomide ([2]; ≧230 days from rituximab to lenalidomide treatment): 46% | Responders ([3]; Study 1 and 2, Favorable = tumor burden <50 cm^2 and time since last rituximab ≧230 days, 43 patients): 26 | Response Rate (ORR) ([3]; Study 1 and 2, Favorable = tumor burden <50 cm^2 and time since last rituximab ≧230 days, N=43): 60% | Responders ([3]; Study 1 and 2, Unfavorable = tumor burden ≧50 cm^2 and/or time since last rituximab <230 days, 54 patients): 4 | Response Rate (ORR) ([3]; Study 1 and 2, Unfavorable = tumor burden ≧50 cm^2 and/or time since last rituximab <230 days, N=54): 7.4% | Responders [3, 17]: 2 | Response Rate [3, 17]: 5% | Responders [3, 18]: 28 | Response Rate [3, 18]: 49% | Responders [3, 19]: 28 | Response Rate [3, 19]: 42% | Responders [3, 20]: 2 | Response Rate [3, 20]: 6.9% | duration of response ([3]; Study 1 and 2 taken together): approximately 6 months | Response Rate ([3]; Study 1 and 2 taken together, all patients): 31% | side effects ([3]; Study 1 and 2 taken together, monotherapy in aggressive NHL): manageable hematological side effects | efficacy in peripheral T-cell lymphomas [4]: effective in treating peripheral T-cell lymphomas | tolerability of therapy [4]: generally been well tolerated
